Our source for the IC50 values is patent publication US20260008783A1, “MODULATORS OF FSHR AND USES THEREOF” (Celmatix Inc., priority 2022, published 2026).

The target of the test is T1, Follicle Stimulating Hormone Receptor (FSHR) (Homo sapiens, UniProt P23945).
T1 construct: HA (N); expressed in transfected cells; host or cells: CHO-K1, transient transfection, pHM6 vector (CMV promoter)
T1 sequence (P23945 18-695): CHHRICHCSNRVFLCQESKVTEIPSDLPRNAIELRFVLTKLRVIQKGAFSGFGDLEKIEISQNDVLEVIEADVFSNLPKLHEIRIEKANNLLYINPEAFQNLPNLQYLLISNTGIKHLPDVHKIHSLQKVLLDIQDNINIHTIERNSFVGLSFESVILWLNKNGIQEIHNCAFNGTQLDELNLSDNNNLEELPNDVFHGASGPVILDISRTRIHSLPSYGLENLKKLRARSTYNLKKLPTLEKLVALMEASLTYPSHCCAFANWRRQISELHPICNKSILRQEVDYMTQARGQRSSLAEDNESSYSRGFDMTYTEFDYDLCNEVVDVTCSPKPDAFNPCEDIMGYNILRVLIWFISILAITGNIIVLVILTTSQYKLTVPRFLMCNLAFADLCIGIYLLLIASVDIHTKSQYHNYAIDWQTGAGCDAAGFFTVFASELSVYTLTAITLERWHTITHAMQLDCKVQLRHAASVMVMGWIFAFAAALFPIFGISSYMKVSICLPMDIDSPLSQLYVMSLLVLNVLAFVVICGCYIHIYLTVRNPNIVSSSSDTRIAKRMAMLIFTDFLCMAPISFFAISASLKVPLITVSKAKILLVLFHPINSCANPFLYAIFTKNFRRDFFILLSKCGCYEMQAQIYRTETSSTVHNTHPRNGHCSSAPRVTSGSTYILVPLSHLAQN
The test can be described thus: HTRF cAMP agonist assay, FSHR, transiently transfected CHO-K1 cells. Format: cell-based. Particulars: CHO-K1 cells transiently expressing human FSHR, read-out: IC50 FSHR LANCE CAMP. The source says:
Example 17. HTRF cAMP Agonist Assay Protocol (for FSHR, TSHR, LHCGR)
Mammalian expression vectors designed to express either Follicle Stimulating Hormone Receptor (FSHR), Thyroid Stimulating Hormone Receptor (TSHR), or Luteinizing Hormone/Choriogonadotropin Receptor (LHCGR), were generated with an HA-tag on the N-terminus. All constructs were expressed under a human cytomegalovirus (CMV) immediate early enhancer and promoter using the pHM6 expression vector. The protein coding region was confirmed by sequence analysis to be in-frame and of the expected sequence, matching the following accession numbers: FSHR NM_000145, TSHR NM_000369, and LHCGR NM_000233.
HTRF cAMP assays were performed using Chinese Hamster Ovary (CHO-K1) cell lines transiently expressing human FSH, TSH, and LHCG receptors. 48 hours before the assay, cells were washed with PBS and then dissociated from tissue culture flasks with 0.25% trypsin. Dissociated cells were quenched in full media (F-12K Medium Corning REF #10-025-CV, 10% Avantor Seradigm FB Essence Cat #10803-034, 1% Penicillin/Streptomycin Cytiva HyClone Cat #SV30010) and then collected by centrifugation at 290×g for 5 min. Cells were resuspended in full media and dispensed into 150 mm cell culture dishes (Nest Scientific Cat #715001), at 2.3×10^6 cells/flask. 7 hours later, cells were transfected using Lipofectamine transfection reagent (Invitrogen Cat #18324020). Briefly, 60 μL of lipofectamine was dispensed into 2 mL of Opti-MEM (Gibco Cat #31985070) and incubated for 5 minutes at room temperature. Then, the mixture was added onto […] of DNA and incubated for another 20 minutes at room temperature. Cells were washed with warm (37° C.) PBS. 17.5 mL of Opti-MEM was dispensed onto the cells, followed by addition of the Opti-MEM/lipofectamine/DNA mixture. Cells were incubated overnight in a 37° C., 5% CO2 cell incubator. 17-19 hours later, Opti-MEM was aspirated off the cells and replaced with full media. Cells were incubated for another 24 hours in a 37° C., 5% CO2 cell incubator.
On the day of the assay, cells were washed with PBS and then dissociated from tissue culture flasks with 0.25% trypsin. Dissociated cells were quenched in full media and then collected by centrifugation at 290×g for 5 min. Cells were resuspended in PBS^+/+ (Corning REF #20-030-CV) to a concentration of 2×10^5 cells/mL. 10 μL/well of cells (2,000 cells/well) were dispensed into 384-well Corning plates (REF #3825), in triplicate. Cells were incubated at room temperature for 2 hours.
Example FSHR Modulator compounds were diluted in assay buffer (PBS^+/+, 0.05% BSA Sigma-Aldrich A3059, 500 μM IBMX Sigma-Aldrich 15879) to 3.5× the final assay concentration. 4 μL of test agonist was added to the cells and incubated for 1 hour at room temperature. 10 μL of cAMP detection reagents (LANCE Ultra cAMP Detection Kit PerkinElmer TRF0264) were dispensed onto the cells and plates were incubated for 2 hours at room temperature (cAMP detection reagents were made according to the PerkinElmer kit protocol). Plates were read on an Envision plate reader following PerkinElmer guidelines.
Raw data for all assays was transmitted directly from plate readers into a database for processing. All assay plates contained both positive and negative control wells to allow for data normalization and scaling. In agonist assays, negative control wells contained assay buffer and positive control wells contained […] positive control (10 nM Follicle Stimulating Hormone Sigma-Aldrich F4021, 50 nM Thyroid Stimulating Hormone Sigma-Aldrich 869006, 50 nM Luteinizing Hormone MyBioSource MBS5308806, for their respective receptors). All control wells contained DMSO at a final assay concentration that matched the test compound wells. […]
Percent control data were analyzed by non-linear regression with a sigmoidal dose response algorithm in the database to yield potency and efficacy data.
For orientation: TR-FRET usually uses a lanthanide donor and a delayed reading to cut background.
By IC50 is commonly meant the midpoint of a concentration-inhibition curve. Consider `COc1cc2c(cc1-c1cncc(C(N)=O)c1)-c1c(c(C(=O)N3CCC(S(C)(=O)=O)CC3C)nn1-c1cc(Cl)cc(Cl)c1)CC2` (stereo not drawn) [Compound 8-13, 5-[1-(3,5-dichlorophenyl)-7-methoxy-3-(2-methyl-4-methylsulfonyl-piperidine-1-carbonyl)-4,5-dihydrobenzo[g]indazol-8-yl]pyridine-3-carboxamide], for which the IC50 was found to be 244 nM.

As to `COc1cc2c(cc1-c1cncc(C(N)=O)c1)-c1c(c(C(=O)NC(C)(C)CO)nn1-c1cc(Cl)cc(Cl)c1)CC2` [Compound 8-52A], the IC50 stood at 39.3 nM.

`COc1cc2c(cc1-c1cncc(C(N)=O)c1)-c1c(c(C(=O)N(C)C(C)(C)C)nn1-c1cc(Cl)cc(Cl)c1)[S+]([O-])C2` (stereo not drawn) [Compound 3-07, N-tert-butyl-8-(5-carbamoyl-3-pyridyl)-1-(3,5-dichlorophenyl)-7-methoxy-N-methyl-4-oxo-5H-isothiochromeno[4,3-c]pyrazole-3-carboxamide]: the IC50 was 4560 nM.

On to `COc1cc2c(cc1-c1cncc(C(N)=O)c1)-c1c(c(C(=O)N3CCCNCC3)nn1-c1cc(Cl)cc(Cl)c1)CC2` [Compound 8-03, 5-[3-(1,4-diazepane-1-carbonyl)-1-(3,5-dichlorophenyl)-7-methoxy-4,5-dihydrobenzo[g]indazol-8-yl]pyridine-3-carboxamide], for which the IC50 worked out at 449 nM.

On to `COc1cc2c(cc1-c1cncc(C(N)=O)c1)-c1c(c(C(=O)N3CCC4CN(C(=O)OC(C)(C)C)CCC43)nn1-c1cc(Cl)cc(Cl)c1)CC2` (stereo not drawn) [Compound 8-23A, tert-butyl 1-[8-(5-carbamoyl-3-pyridyl)-1-(3,5-dichlorophenyl)-7-methoxy-4,5-dihydrobenzo[g]indazole-3-carbonyl]-3,3a,4,6,7,7a-hexahydro-2H-pyrrolo[3,2-c]pyridine-5-carboxylate], for which the IC50 came to 928 nM.

In the case of `COc1cc2c(cc1-c1cncc(C(N)=O)c1)-c1c(c(C(=O)N3CCCC3(C)C)nn1-c1cc(Cl)cc(Cl)c1)CC2` [Compound 8-14], the IC50 stood at 3.47 nM.

On to `C[C@H]1CNC(=O)[C@H](C)N1C(=O)c1nn(-c2ccccn2)c2c1CCc1ccc(-c3cccnc3)cc1-2` [Compound 8-79], for which the IC50 amounted to 6090 nM.

For `COc1cc2c(cc1-c1cncc(C(N)=O)c1)-c1c(c(C(=O)N3CCOC[C@@H]3C)nn1-c1cc(Cl)cc(Cl)c1)CC2` [Compound 8-43], the IC50 stood at 2.59 nM.

In the case of `COc1cc2c(cc1-c1cncc(C(N)=O)c1)-c1c(c(C(=O)N3CCOCC3(C)C)nn1-c1cc(Cl)cc(Cl)c1)OC2` [Compound 2-01, 5-[1-(3,5-dichlorophenyl)-3-(3,3-dimethylmorpholine-4-carbonyl)-7-methoxy-5H-isochromeno[4,3-c]pyrazol-8-yl]pyridine-3-carboxamide], the IC50 turned out to be 3.44 nM.

Take `COc1cc2c(cc1-c1cncc(C(N)=O)c1)-c1c(c(C(=O)N3C4CC3CN(C)C4)nn1-c1cc(Cl)cc(Cl)c1)CC2` [Compound 8-16]: the IC50 amounted to 70.4 nM.

In the case of `COc1cc2c(cc1-c1ccn(C)n1)-c1c(c(C(=O)N(C)C(C)(C)C)nn1-c1ccsc1)C2` [Compound 5-08, N-tert-butyl-6-methoxy-N-methyl-7-(1-methylpyrazol-3-yl)-1-(3-thienyl)-4H-indeno[1,2-c]pyrazole-3-carboxamide], the IC50 is 195 nM.

On to `COc1cc2c(cc1-c1cncc(C(N)=O)c1)-c1c(c(C(=O)N3CCOCC3(C)C)nn1CC(C)C)CC2` [Compound 9-14], for which the 50% inhibitory concentration (IC50) turned out to be 14.3 nM.

For the compound `COc1cc2c(cc1-c1cncc(C(N)=O)c1)-c1c(c(C(=O)N3CCN(CCO)C(=O)C3(C)C)nn1-c1cc(Cl)cc(Cl)c1)CC2` [Compound 8-70], the IC50 stood at 140 nM.

As to `COc1cc2c(cc1-c1cncc(C(N)=O)c1)-c1c(c(C(=O)N(C)C3CCCC3)nn1-c1cc(Cl)cc(Cl)c1)CC2` [Compound 8-47], the IC50 was found to be 29.3 nM.

In the case of `COc1ccc2c(c1)CCc1c(C(=O)N3CCOCC3(C)C)nn(-c3cc(Cl)cc(Cl)c3)c1-2` [Compound 9-08A], the IC50 amounted to 2480 nM.

Take `COc1cc2c(cc1-c1ccn(C)n1)-c1c(c(C(=O)N(C)C(C)(C)C)nn1-c1ccsc1)OC2` [Compound 2-08]: the IC50 was 475 nM.

In the case of `COc1cc2c(cc1-c1cncc(C(N)=O)c1)-c1c(c(C(=O)N3C[C@@H]4C[C@H]3CO4)nn1-c1cc(Cl)cc(Cl)c1)CC2` [Compound 8-29], the IC50 is 27.3 nM.

With `COc1cc2c(cc1-c1ccn(C)n1)-c1c(c(C(=O)N3CCOCC3(C)C)nn1-c1cc(Cl)cc(Cl)c1)C2` [Compound 5-05, [1-(3,5-dichlorophenyl)-6-methoxy-7-(1-methylpyrazol-3-yl)-4H-indeno[1,2-c]pyrazol-3-yl]-(3,3-dimethylmorpholin-4-yl)methanone], the IC50 was 559 nM.

Consider `COc1cc2c(cc1-c1ccn(C)n1)-c1c(c(C(=O)N(C)C(C)(C)C)nn1-c1cc(Cl)cc(Cl)c1)C2` [Compound 5-06, N-tert-butyl-1-(3,5-dichlorophenyl)-6-methoxy-N-methyl-7-(1-methylpyrazol-3-yl)-4H-indeno[1,2-c]pyrazole-3-carboxamide], for which the IC50 turned out to be 494 nM.

For the compound `COc1cc2c(cc1-c1cncc(C(N)=O)c1)-c1c(c(C(=O)N3CCOCC3(C)C)nn1-c1cc(Cl)cc(Cl)c1)SC2` [Compound 3-01, 5-[1-(3,5-dichlorophenyl)-3-(3,3-dimethylmorpholine-4-carbonyl)-7-methoxy-5H-isothiochromeno[4,3-c]pyrazol-8-yl]pyridine-3-carboxamide], the IC50 is 6.72 nM.

For the compound `COc1cc2oc3c(C(=O)N4CCOCC4(C)C)nn(-c4ccsc4)c3c2cc1-c1cncc(C#N)c1` [Compound 4-03, 5-[3-(3,3-dimethylmorpholine-4-carbonyl)-6-methoxy-1-(3-thienyl)benzofuro[3,2-c]pyrazol-7-yl]pyridine-3-carbonitrile], the IC50 was 579 nM.

Turning to `COc1cc2c(cc1-c1cncc(C(N)=O)c1)-c1c(c(C(=O)N3CCOCC3(C)C)nn1-c1ccncn1)CC2` [Compound 10-10], the IC50 came out at 14.8 nM.

`COc1cc2c(cc1-c1cncc(C(N)=O)c1)-c1c(c(C(=O)N3CCCNCC3(C)C)nn1-c1cc(Cl)cc(Cl)c1)CC2` [Compound 8-04, 5-[1-(3,5-dichlorophenyl)-3-(2,2-dimethyl-1,4-diazepane-1-carbonyl)-7-methoxy-4,5-dihydrobenzo[g]indazol-8-yl]pyridine-3-carboxamide]: the IC50 was 28.3 nM.

For `COc1cc(Cl)cc(-n2ncc3c2-c2cc(-c4cncc(C(N)=O)c4)c(OC)cc2CC3)c1` [Compound 9-24], the IC50 stood at 15500 nM.
